ChEMBL document CHEMBL1201862, “PubChem BioAssay data set” (2004)
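Briefly, cells in 96-well plates were exposed to five compound concentrations for 48 h, and endpoints were estimated by linear interpolation. GI50: concentration for 50% inhibition of growth.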 Activity calls are given as the source filed them. No stated cut-off is given here; in the data, active = GI50 up to about 1.1 µM and inactive = higher.

Legend:
Experiment in all cases: growth of human tumour cells (NCI), 48 h
[1] = system: HOP-18
[2] = system: DMS-114
[3] = system: M19-MEL
[4] = system: RXF 631
[5] = system: DMS-273
[6] = system: LXFL 529
[7] = system: DLD-1
[8] = system: XF498
[9] = system: SNB-78

Measured: GI50

CCOC(=O)C(CCCNC(=O)OC(C)(C)C)N(Cc1ccc(OC)cc1OC)C(=O)CC(=O)CP(=O)(OCC)OCC (stereo unspecified)
inactive: [1] > 100 µM | [2] 21 µM | [3] > 100 µM | [4] > 100 µM | [5] > 100 µM | [6] > 100 µM | [7] > 100 µM

CC(Cn1c2c3ccccc3ccc2c2oc(=O)c3ccccc3c21)N(C)C (stereo unspecified)
inactive: [2] > 100 µM | [8] > 100 µM | [6] > 100 µM | [7] > 100 µM | [9] > 100 µM

Cc1[nH]c2c(C)cccc2c1C1Cc2ccccc2N1 (stereo unspecified)
inactive: [1] 17.8 µM | [2] 18.2 µM | [8] 21.1 µM | [3] 21.7 µM | [6] 17.6 µM | [7] 28.8 µM

O=C1c2ccccc2N2OC3(N4CCCC4)CCCCC3C12c1ccccc1 (stereo unspecified)
inactive: [1] > 100 µM | [2] 15.2 µM | [8] 22.4 µM | [3] 10.1 µM | [5] 17 µM | [6] 14.5 µM | [7] 20 µM | [9] 16.6 µM

O=c1c2cc3c(cc2c2cccc4c2n1CCC4)OCO3
inactive: [1] 49.5 µM | [3] 86.7 µM | [5] 28.1 µM | [6] 37.5 µM | [7] 26.8 µM | [9] 68.5 µM

COc1ccc(C(Cc2cc(OC)c(OC)c(OC)c2)C(=O)O)cc1 (stereo unspecified)
inactive: [1] > 100 µM | [2] 41 µM | [8] 40.5 µM | [3] 45.7 µM | [4] > 100 µM | [5] 52.5 µM | [7] 51.1 µM | [9] 60.1 µM

CN1CCc2ccccc2C(C(=O)c2ccc3c(c2)OCO3)C1=O (stereo unspecified)
inactive: [1] > 100 µM | [2] 39.3 µM | [8] 70.8 µM | [3] > 100 µM | [4] > 100 µM | [5] > 100 µM | [6] > 100 µM | [7] > 100 µM

COC(=O)/C=C1/CCC(C(=O)OC)N1 (stereo unspecified)
inactive: [2] > 100 µM | [8] > 100 µM | [3] > 100 µM | [5] > 100 µM | [6] > 100 µM | [7] > 100 µM | [9] > 100 µM

COc1ccc(NC(=O)c2oc3cc(O)ccc3c(=O)c2C)c([N+](=O)[O-])c1
inactive: [1] > 100 µM | [2] > 100 µM | [8] > 100 µM | [3] > 100 µM | [5] > 100 µM | [6] > 100 µM | [7] > 100 µM | [9] > 100 µM

COc1ccc(S(=O)(=O)N/N=C/CN2C(=O)c3ccccc3C2=O)cc1
inactive: [8] > 100 µM | [3] > 100 µM | [5] > 100 µM | [6] > 100 µM | [7] > 100 µM

Cc1c(CC/C(=N\Nc2ccc([N+](=O)[O-])cc2[N+](=O)[O-])c2ccccc2)c2ccccc2n1C
inactive: [2] > 100 µM | [8] > 100 µM | [3] > 100 µM | [4] > 100 µM | [5] > 100 µM | [6] > 100 µM | [7] > 100 µM | [9] > 100 µM

CCCCCCCCCCCCCC(=O)NCC(OCC)OCC
inactive: [1] > 100 µM | [2] > 100 µM | [8] > 100 µM | [3] > 100 µM | [5] > 100 µM | [6] > 100 µM | [7] > 100 µM | [9] > 100 µM

N#CC(C(=N/NC(N)=S)/C(=N\NC(N)=S)C(C#N)c1ccccc1)c1ccccc1 (stereo unspecified)
inactive: [1] > 10 µM | [2] > 10 µM | [8] > 10 µM | [3] > 10 µM | [4] > 10 µM | [5] > 10 µM | [6] > 10 µM | [7] > 10 µM | [9] > 10 µM

CCOC(=O)C(=O)Nc1nc2ccc(C)cc2s1
inactive: [2] > 100 µM | [8] > 100 µM | [3] > 100 µM | [4] > 100 µM | [5] > 100 µM | [6] > 100 µM | [7] > 100 µM | [9] 87.7 µM

COC(=O)C1=C(c2cc(OC)c(OC)c(OC)c2)O[C@H](c2ccc3c(c2)OCO3)[C@H]1COC(C)=O
inactive: [1] 26.7 µM | [8] 33.6 µM | [3] 20.7 µM | [4] 42.3 µM | [5] 26.6 µM | [6] 20.3 µM | [7] 26.3 µM | [9] 26.7 µM

Cc1cc(Br)ccc1NC1=CC(=O)C(=O)c2ccccc21
inactive: [1] 16 µM | [2] 19.8 µM | [8] 31.6 µM | [3] 15.2 µM | [5] 31.4 µM | [6] 55.7 µM | [7] > 100 µM | [9] > 100 µM

CC(=O)OCc1c(O)nc2c(c1O)-c1ccccc1CC2
inactive: [1] 129 µM | [2] 67.8 µM | [8] 56.5 µM | [3] 54.3 µM | [4] 69.5 µM | [5] 49.2 µM | [6] 60 µM | [7] 71.9 µM

O=C1C=C(Nc2ccccc2C(=O)c2ccccc2)c2ccccc2C1=O
inactive: [1] > 100 µM | [2] 36.1 µM | [3] 9.14 µM | [5] > 100 µM | [6] > 100 µM | [7] > 100 µM | [9] > 100 µM

CCOC(=O)NNC(=O)NC12CC3CC(CC(C3)C1)C2
inactive: [1] > 100 µM | [2] > 100 µM | [8] > 100 µM | [3] > 100 µM | [5] > 100 µM | [6] > 100 µM | [7] > 100 µM | [9] > 100 µM

COc1cc2noc(-c3ccccc3)c2cc1OC
inactive: [1] > 100 µM | [2] 35.9 µM | [3] 89.5 µM | [4] 20.4 µM | [5] 39.6 µM | [6] 68.4 µM | [7] 64 µM | [9] 73.5 µM

COc1cc(/C=C2\CCc3ccccc3C2=O)cc(OC)c1OC
inactive: [1] 13.6 µM | [2] 12.5 µM | [8] 17.9 µM | [3] 15.9 µM | [4] 22.4 µM | [5] 11.9 µM | [6] 15.2 µM | [7] 13.8 µM | [9] 24 µM

COc1ccc(N2C(=O)/C(=C/c3ccc(N(CCC#N)CCC#N)cc3C)N=C2c2cc([N+](=O)[O-])ccc2Cl)cc1
inactive: [1] > 100 µM | [2] 3.32 µM | [8] 2.34 µM | [3] 17.1 µM | [5] 3.3 µM | [6] 7.53 µM | [7] 4.51 µM | [9] 6.9 µM

CCOC(=O)CNC(SC)=C(C#N)C#N
inactive: [2] > 100 µM | [8] > 100 µM | [3] > 100 µM | [5] > 100 µM | [6] > 100 µM | [7] > 100 µM | [9] > 100 µM

Nc1ncnc2c1ncn2CCCC(c1ccccc1)P(=O)(O)O (stereo unspecified)
inactive: [2] > 100 µM | [8] > 100 µM | [3] > 100 µM | [5] > 100 µM | [6] > 100 µM | [7] > 100 µM | [9] > 100 µM

O=C(CCc1nnc2s/c(=C\c3ccc(Cl)cc3Cl)c(=O)n12)Nc1cc(Cl)c(Cl)cc1Cl
inactive: [1] > 10 µM | [2] > 10 µM | [8] > 10 µM | [3] > 10 µM | [4] 71.4 µM | [5] > 10 µM | [6] > 10 µM | [7] > 10 µM | [9] 84.1 µM

CSc1ccc2c(cc1=O)[C@@H](NC(=O)c1ccc(F)cc1)CCc1cc(O)c(O)c(O)c1-2
inactive: [1] > 100 µM | [2] > 100 µM | [3] > 100 µM | [4] > 100 µM | [5] > 100 µM | [6] > 100 µM | [7] > 100 µM | [9] > 100 µM
